Test results: patent US20250186379A1, “METHODS AND AGENTS FOR DECREASING INSULIN RESISTANCE” (Whitehead Institute for Biomedical Research, priority 2021, published 2025)
“Also recorded” adds a separate entry of the source. Where two headings read alike, the source gives them in different places.

Legend:
[1] = system: lipogenic and gluconeogenesis genes (FASN, PCK1); assay: Expression of lipogenic and gluconeogenesis genes (RNA-seq, RT-qPCR) in HepG2 cells; assay type: cell-based, human
Procedure: RNA was extracted using TRIzol™ reagent (Thermo Fisher Scientific, 15596026) following the manufacturer's instructions. cDNA synthesis was performed using qScript cDNA Supermix (QuantaBio, 95048-500) according to the manufacturer's instructions, using 1000 ng RNA as starting material.
qPCR was performed on a Thermo Fisher Scientific QuantStudio 6 machine using Fast SYBR™ Green Master Mix (Thermo Fisher, 4385618) and primers (listed below) according to the manufacturer's instructions. Expression data is presented after calculating the relative expression compared with the housekeeping gene RPLP0, using the equation Relative Quantification (RQ)=100/(2^(Target Gene Ct—RPLP0 Ct). When data is reported relative to a sample condition, the condition of reference was set as 1 and the data of the other conditions were reported as a ratio (condition/condition of reference).
RNA sequencing was performed by the Whitehead Institute Genome Technology Core. Libraries were prepared using the KAPA HyperPrep stranded RNA kit (Roche, KK8540) following manufacturer's instructions. Samples were sequenced on a HiSeq2500 in High-Output mode generating 50 bases, single-end reads.
RNA-sequencing (RNA-seq) bioinformatics analysis was performed on the Whitehead High-Performance Computing Facility using the nf-core RNA-seq pipeline v1.4.2^13 with Nextflow v20.04.1. Quality control of .fastq files was performed with FastQC v0.11.8. The reads were single-end and the strandedness was set to reverse. Low quality sequences were trimmed using Trim Galore!v0.6.4. Alignment was performed against the hg19 genome assembly using STAR v2.6.1d^17 and duplicates were marked using Picard MarkDuplicates v2.21.1. Quantification of transcripts was performed using featureCounts v1.6.4^18. Differential expression analysis was performed using edgeR v3.26.5^19. deepTools v3.3.1^20, dupRadar v1.14.0^21, Qualimap v.2.2.2-dev^22, and MultiQC v1.7 were used for quality control. […]

[2] = system: insulin receptor (IR); assay: Immunoblot for IR levels in HepG2 cells; assay type: cell-based, human; conditions: insulin resistant HepG2 cells treated with (RM) or without (R) metformin
Procedure: Cells were washed with ice-cold PBS and lysed in Cell Lytic M (Sigma-Aldrich C2978) supplemented with protease and phosphatase inhibitors (Sigma Aldrich, 11873580001 and 4906837001) directly on the wells. Lysates were placed into a 1.5 ml tube and mixed at 4° C. for 20 min and then centrifuged at 13,000 rpm for 15 min. Protein concentration was determined using a BCA Protein Assay Kit (Life Technologies, 23250) according to the manufacturer's instructions. Equal amounts of protein (5-50 μg per sample) were separated on 10% or 12% Bis-Tris gels in 5% XT MOPS running buffer (Bio-Rad Laboratories, 1610788) at 100V until dye front reached the end of the gel. Protein was then transferred to a 0.45 μM PVDF membrane (Millipore, IPVH00010) in ice cold transfer buffer (25 mM Tris, 192 mM glycine, 20% methanol) at 300 mA for 1 hour or 250 mA for 2 hours at 4° C. […] Immunoblot quantification was performed using the “analyze gel” tool on Fiji/ImageJ v2.1.0/153c. […]
Cells were washed with ice-cold PBS (Life Technologies, AM9625) and lysed in Cell Lytic M (Sigma Aldrich C2978) supplemented with protease and phosphatase inhibitors (Sigma Aldrich, 11873580001 and 4906837001) directly on the wells. […] Super natant was collected and protein concentration was determined using a BCA Protein Assay Kit (Life Technologies, 23250) according to the manufacturer's instructions. […]

[3] = cited from earlier work
[4] = insulin-sensitive HepG2 cells, 3 nM insulin 4 hours

Compound	expression of the lipogenic gene FASN after insulin stimulation ([1]; cells exposed to pathologic levels (3 nM) of insulin for two days)	expression of gluconeogenesis genes [1, 4]	expression of lipogenic genes [1, 4]	IR levels (immunoblot for IRb) [2]	concentration of metformin in the plasma of T2D patients ([3]; T2D patients (Example 1))	concentration of metformin in the plasma of T2D patients ([3]; T2D patients (Example 2, refs 58-60))
insulin: insulin (Sigma Aldrich, I9278-5ML) used for acute stimulation and chronic physiological or pathological exposure	unchanged	downregulation of gluconeogenesis genes	upregulation of lipogenic genes	–	–	–
CN(C)C(=N)N=C(N)N [metformin, reference compound]	–	–	–	not due to changes in IR levels; also recorded: does not alter IR protein level in insulin resistant cells	~12.5 µM	~12.5 µM
